Test results: patent US12599672B2, “KRAS proteolysis targeting chimeras” (PAQ Therapeutics Inc., priority 2023, dated 2026)

Columns and labels:
Type in all cases: cell-based
KRAS = biological target: T1, KRAS (Homo sapiens, UniProt P01116); experiment: KRASamp MSD assay; conditions: KE39 (KRAS amplified) cells, treated with test compounds for 24 hr, MSD readout of KRAS degradation
T1 construct: endogenous in cells; host or cells: KE39 (KRAS amplified) cells
Method in brief: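 KRAS-amplified KE39 cells treated with compound for 24 hr, then lysed in RIPA buffer with protease/phosphatase inhibitors. KRAS protein measured by MSD sandwich immunoassay against a recombinant WT KRAS standard curve; DC50 derived from curve fitting of degradation.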

KRAS G12D = biological target: T2, KRAS G12D (Homo sapiens, UniProt P01116, G12D); experiment: KRAS G12D HiBit assay; conditions: AsPc-1-KRAS (G12D)-HiBit-KI cell, compound treatment for 24 hours, class symbols; for DC50: absolute DC50
T2 construct: AsPc-1-KRAS (G12D)-HiBit-KI cell (Pharmaron); host or cells: AsPc-1-KRAS (G12D)-HiBit-KI cells (HiBiT knock-in at the endogenous KRAS locus)
T2 sequence (P01116 1-188 isoform P01116-2 G12D): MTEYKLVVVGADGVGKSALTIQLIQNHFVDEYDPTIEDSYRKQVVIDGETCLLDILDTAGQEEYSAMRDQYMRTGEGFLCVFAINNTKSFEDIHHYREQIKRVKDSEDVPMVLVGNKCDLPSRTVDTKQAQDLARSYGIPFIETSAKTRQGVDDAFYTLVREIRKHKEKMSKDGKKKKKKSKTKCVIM
Method in brief: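 Cells were treated for 24 h with compounds in a 3-fold, 10-point dilution series from a 0.3 mM DMSO stock, then equilibrated 15 min at room temperature. KRAS G12D HiBiT levels were read by luminescence after lytic Nano-Glo HiBiT reagent with LgBiT; inhibition calculated relative to 0.1% DMSO high control.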

KRAS G12V = biological target: T3, KRAS G12V (Homo sapiens, UniProt P01116, G12V); experiment: KRAS G12V HiBit assay; conditions: SW620-KRAS (G12V)-HiBit-KI cells, compound treatment for 24 hours, class symbols
T3 construct: SW620-KRAS (G12V)-HiBit-KI cell (Pharmaron); host or cells: SW620-KRAS (G12V)-HiBit-KI cells (HiBiT knock-in at the endogenous KRAS locus)
T3 sequence (P01116 1-188 isoform P01116-2 G12V): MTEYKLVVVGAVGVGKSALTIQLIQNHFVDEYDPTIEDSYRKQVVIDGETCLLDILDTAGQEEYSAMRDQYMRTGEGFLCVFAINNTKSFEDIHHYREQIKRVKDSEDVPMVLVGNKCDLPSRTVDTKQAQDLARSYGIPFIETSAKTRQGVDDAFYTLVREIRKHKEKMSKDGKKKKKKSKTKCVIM
Method in brief: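 HiBiT-tagged KRAS G12V cells treated 24 h with compound in a 3-fold, 10-point series (0.3 mM DMSO stock); lytic HiBiT reagent with LgBiT added after 15 min room-temperature equilibration. Degradation calculated against 0.1% DMSO high control.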

T1 sequence (P01116 1-188 isoform P01116-2): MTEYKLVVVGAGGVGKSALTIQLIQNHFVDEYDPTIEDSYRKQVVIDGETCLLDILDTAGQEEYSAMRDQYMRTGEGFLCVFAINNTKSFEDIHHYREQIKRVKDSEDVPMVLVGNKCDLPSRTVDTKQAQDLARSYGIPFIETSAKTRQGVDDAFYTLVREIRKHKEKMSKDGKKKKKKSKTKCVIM

Compound | DC50 (KRAS) [nM] | DC50 (KRAS G12D) [nM] | DC50 (KRAS G12V) [nM] | Dmax (KRAS G12D) [%]
CCc1c(F)ccc2cc(O)cc(-c3ncc4c(N5CCOCC(C)(O)C5)nc(OC[C@@]56CCCN5[C@H](COC(=O)N5CCC(CN7CCC(c8ccc9c(c8)n(C)c(=O)n9C8CCC(=O)NC8=O)CC7)CC5)CC6)nc4c3F)c12 (stereo partly drawn) [Compound 118, ((3S,7aS)-7a-(((7-(8-Ethyl-7-fluoro-3-hydroxynaphthalen-1-yl)-8-fluoro-4-(6-hydroxy-6-methyl-1,4-oxazepan-4-yl)pyrido[4,3-d]pyrimidin-2-yl)oxy)methyl)hexahydro-1H-pyrrolizin-3-yl)methyl4-((4-(1-(2,6-dioxopiperidin-3-yl)-3-methyl-2-oxo-2,3-dihydro-1H-benzo[d]imidazol-5-yl)piperidin-1-yl)methyl) piperidine-1-carboxylate] | < 1 | < 100 | < 10 | –
C#Cc1c(F)ccc2cc(O)cc(-c3ncc4c(N5CCCCCC5)nc(OC[C@@]56CCCN5[C@H](COC(=O)N5CCC(CN7CCC(c8ccc9c(c8)n(C)c(=O)n9C8CCC(=O)NC8=O)CC7)CC5)CC6)nc4c3F)c12 (stereo partly drawn) [Compound 123, ((3S,7aS)-7a-(((4-(Azepan-1-yl)-7-(8-ethynyl-7-fluoro-3-hydroxynaphthalen-1-yl)-8-fluoropyrido[4,3-d]pyrimidin-2-yl)oxy)methyl)hexahydro-1H-pyrrolizin-3-yl)methyl4-((4-(1-(2,6-dioxopiperidin-3-yl)-3-methyl-2-oxo-2,3-dihydro-1H-benzo[d]imidazol-5-yl)piperidin-1-yl)methyl) piperidine-1-carboxylate] | < 1 | < 100 | < 10 | > 50
CCc1c(F)ccc2cc(O)cc(-c3ncc4c(N5CCC[C@@](C)(O)C5)nc(OC[C@@]56CCCN5[C@H](COC(=O)Nc5ccc(N7CCC(c8ccc9c(c8)n(C)c(=O)n9C8CCC(=O)NC8=O)CC7)cc5)CC6)nc4c3F)c12 (stereo partly drawn) [Compound 451, ((3S,7aS)-7a-(((7-(8-ethyl-7-fluoro-3-hydroxynaphthalen-1-yl)-8-fluoro-4-((R)-3-hydroxy-3-methylpiperidin-1-yl)pyrido[4,3-d]pyrimidin-2-yl)oxy)methyl)hexahydro-1H-pyrrolizin-3-yl)methyl (4-(4-(1-(2,6-dioxopiperidin-3-yl)-3-methyl-2-oxo-2,3-dihydro-1H-benzo[d]imidazol-5-yl)piperidin-1-yl)phenyl)carbamate] | < 1 | < 100 | < 10 | –
C#Cc1c(F)ccc2cc(O)cc(-c3ccc4c(N5CCC[C@@](C)(O)C5)nc(OCC5(CN6CCC(CN7CCC(c8ccc9c(c8)n(C)c(=O)n9C8CCC(=O)NC8=O)CC7)CC6)CC5)nc4c3F)c12 (some centres unmarked) [Compound 13] | < 1 | < 100 | < 10 | –
CCc1c(F)ccc2cc(O)cc(-c3ncc4c(N5CCC[C@@H](CO)C5)nc(OC[C@@]56CCCN5[C@H](COC(=O)N5CCC(CN7CCC(c8ccc9c(c8)n(C)c(=O)n9C8CCC(=O)NC8=O)CC7)CC5)CC6)nc4c3F)c12 (stereo partly drawn) [Compound 340, ((3S,7aS)-7a-(((7-(8-ethyl-7-fluoro-3-hydroxynaphthalen-1-yl)-8-fluoro-4-((R)-3-(hydroxymethyl)piperidin-1-yl)pyrido[4,3-d]pyrimidin-2-yl)oxy)methyl)hexahydro-1H-pyrrolizin-3-yl)methyl 4-((4-(1-(2,6-dioxopiperidin-3-yl)-3-methyl-2-oxo-2,3-dihydro-1H-benzo[d]imidazol-5-yl)piperidin-1-yl)methyl)piperidine-1-carboxylate] | < 1 | < 100 | < 10 | –
CCc1c(F)ccc2cc(O)cc(-c3ncc4c(N5CCC[C@@](C)(O)C5)nc(OC[C@@]56CCCN5[C@H](COC(=O)N5CC7(CC(CN8CCC(c9ccc%10c(c9)n(C)c(=O)n%10C9CCC(=O)NC9=O)CC8)C7)C5)CC6)nc4c3F)c12 (stereo partly drawn) [Compound 396, ((3S,7aS)-7a-(((7-(8-ethyl-7-fluoro-3-hydroxynaphthalen-1-yl)-8-fluoro-4-((R)-3-hydroxy-3-methylpiperidin-1-yl)pyrido[4,3-d]pyrimidin-2-yl)oxy)methyl)hexahydro-1H-pyrrolizin-3-yl)methyl 6-((4-(1-(2,6-dioxopiperidin-3-yl)-3-methyl-2-oxo-2,3-dihydro-1H-benzo[d]imidazol-5-yl)piperidin-1-yl)methyl)-2-azaspiro[3.3]heptane-2-carboxylate] | < 1 | < 100 | < 10 | –
CCc1c(F)ccc2cc(O)cc(-c3ncc4c(N5CCC[C@@](C)(O)C5)nc(OC[C@@]56CCCN5[C@H](COC(=O)N5CCC(CN7CCC(c8cc9c(cc8F)n(C8CCC(=O)NC8=O)c(=O)n9C)CC7)CC5)CC6)nc4c3F)c12 (stereo partly drawn) [Compound 101, ((35,7aS)-7a-(((7-(8-Ethyl-7-fluoro-3-hydroxynaphthalen-1-yl)-8-fluoro-4-((R)-3-hydroxy-3-methylpiperidin-1-yl)pyrido[4,3-d]pyrimidin-2-yl)oxy)methyl)hexahydro-1H-pyrrolizin-3-yl)methyl 4-((4-(1-(2,6-dioxopiperidin-3-yl)-6-fluoro-3-methyl-2-oxo-2,3-dihydro-1H-benzo[d]imidazol-5-yl)piperidin-1-yl)methyl) piperidine-1-carboxylate] | < 1 | < 100 | < 10 | > 50
CCc1c(F)ccc2cc(O)cc(-c3ncc4c(N5CCC[C@@](C)(O)C5)nc(OC[C@@]56CCCN5[C@H](COC(=O)N5CCC7(CC5)CC(N5CC(c8ccc9c(c8)n(C)c(=O)n9C8CCC(=O)NC8=O)C5)C7)CC6)nc4c3F)c12 (stereo partly drawn) [Compound 464, ((3S,7aS)-7a-(((7-(8-ethyl-7-fluoro-3-hydroxynaphthalen-1-yl)-8-fluoro-4-((R)-3-hydroxy-3-methylpiperidin-1-yl)pyrido[4,3-d]pyrimidin-2-yl)oxy)methyl)hexahydro-1H-pyrrolizin-3-yl)methyl 2-(3-(1-(2,6-dioxopiperidin-3-yl)-3-methyl-2-oxo-2,3-dihydro-1H-benzo[d]imidazol-5-yl)azetidin-1-yl)-7-azaspiro[3.5]nonane-7-carboxylate] | 1 to 10 | < 100 | < 10 | –
C#Cc1c(F)ccc2cccc(-c3ncc4c(N5CCC[C@@](C)(O)C5)nc(OCC5(CN6CCC7(CC6)CN(c6ccc8c(c6)n(C)c(=O)n8C6CCC(=O)NC6=O)C7)CC5)nc4c3F)c12 (some centres unmarked) [Compound 40] | ≥ 10 | > 300 | > 100 | –
Cn1c(=O)n(C2CCC(=O)NC2=O)c2ccc(C3CCN(C4CC5(CCN(C(=O)OC[C@@H]6CC[C@]7(COc8nc(N9CCC[C@@](C)(O)C9)c9cnc(-c%10cc(O)cc%11ccc(F)cc%10%11)c(F)c9n8)CCCN67)CC5)C4)CC3)cc21 (stereo partly drawn) [Compound 438, ((3S,7aS)-7a-(((8-fluoro-7-(7-fluoro-3-hydroxynaphthalen-1-yl)-4-((R)-3-hydroxy-3-methylpiperidin-1-yl)pyrido[4,3-d]pyrimidin-2-yl)oxy)methyl)hexahydro-1H-pyrrolizin-3-yl)methyl 2-(4-(1-(2,6-dioxopiperidin-3-yl)-3-methyl-2-oxo-2,3-dihydro-1H-benzo[d]imidazol-5-yl)piperidin-1-yl)-7-azaspiro[3.5]nonane-7-carboxylate] | < 1 | < 100 | < 10 | –
C#Cc1c(F)ccc2cc(O)cc(-c3ncc4c(N5CCC[C@@](C)(O)C5)nc(OCC5(CN6CCC7(CC6)CC(N6CCN(c8ccc9c(c8)n(C)c(=O)n9C8CCC(=O)NC8=O)CC6)C7)CC5)nc4c3F)c12 (some centres unmarked) [Compound 56] | < 1 | < 100 | < 10 | –
C#Cc1c(F)ccc2cc(O)cc(-c3ncc4c(N5CCC[C@@](C)(O)C5)nc(OC[C@@]56CCCN5[C@H](COC(=O)N5CCC7(CCC7CN7CCC(c8ccc9c(c8)n(C)c(=O)n9C8CCC(=O)NC8=O)CC7)CC5)CC6)nc4c3F)c12 (stereo partly drawn) [Compound 327, ((3S,7aS)-7a-(((7-(8-ethynyl-7-fluoro-3-hydroxynaphthalen-1-yl)-8-fluoro-4-((R)-3-hydroxy-3-methylpiperidin-1-yl)pyrido[4,3-d]pyrimidin-2-yl)oxy)methyl)hexahydro-1H-pyrrolizin-3-yl)methyl 1-((4-(1-(2,6-dioxopiperidin-3-yl)-3-methyl-2-oxo-2,3-dihydro-1H-benzo[d]imidazol-5-yl)piperidin-1-yl)methyl)-7-azaspiro[3.5]nonane-7-carboxylate] | ≥ 10 | < 100 | > 100 | –
